According to ChEMBL document CHEMBL1134323, “Structural basis for the binding affinity of xanthines with the DNA intercalator acridine orange” (J Med Chem, 2001):

Test system: Nucleic Acid

Compound	K ass [M⁻¹]
Cn1c(=O)c2[nH]c(=O)[nH]c2n(C)c1=O	38.5
Cn1c2c(c(=O)n(C)c1=O)NCN2.N/C=C/N	596
Cn1c(=O)c2[nH]cnc2n(C)c1=O	157
Cn1c(=O)[nH]c(=O)c2[nH]cnc21	10
Cn1c(=O)[nH]c2[nH]cnc2c1=O	79.2
Cn1c(=O)c2c(n(C)c1=O)n(C)c(=O)n2C	552
Cn1c(O)nc2[nH]c(=O)[nH]c(=O)c21	0
CN1CNc2[nH]c(=O)n(C)c(=O)c21	155
Oc1nc(O)c2nc(O)[nH]c2n1	0

The remaining lines, values ahead:

K ass [M⁻¹]	Compound
0	O=c1[nH]c(=O)c2nc[nH]c2[nH]1
2	c1nc2c[nH]cnc-2n1
0	Clc1ncnc2[nH]cnc12
0	Cc1ncnc2nc[nH]c12
0	Nc1nc2[nH]cnc2c(=O)[nH]1
